Assay results: patent US7033765B1, “Site-specific drug delivery” (Toronto Research Chemicals, Inc., priority 1997, dated 2006)

Columns and labels:
[1] = target: T1, Y401C Na+ channels (mutated rat skeletal muscle sodium channel protein μ1-2) (Rattus norvegicus, UniProt P15390, Y401C); assay: Two-electrode voltage-clamp of Y401C Na+ channels expressed in Xenopus oocytes; type: cell-based
T1 construct: expressed in transfected cells; host or cells: Xenopus laevis oocytes (injected)

[2] = target: T2, HH1 Na+ channels (Homo sapiens, UniProt Q14524); assay: Two-electrode voltage-clamp of HH1 Na+ channels recorded in oocytes; type: cell-based
T2 construct: expressed in transfected cells; host or cells: Xenopus laevis oocytes (injected)
Experimental: (§1) Oocytes were removed from adult female Xenopus.laevis frogs (NASCO, Fort Atkinson, Wis.; XENOPUS, Ann Arbor, Mich.) that had been anesthetized by immersion for 10-25 minutes in a 0.25% solution of tricaine (Sigma Chemical Co., St. Louis, Mo.) in tap water. A 5-fold excess of Na^+ channel protein β subunits compared to α subunits minimized the altered gating properties of Na^+ channel proteins in oocytes. Injected oocytes were incubated at 22° C. for 24-48 hr prior to recording.
(§2) For oocyte recordings, whole-cell currents were recorded at room temperature (approximately 23° C.) using a two-electrode voltage-clamp with 3 M KCl in the pipette and a bath solution containing: 96 mM NaCl, 4 mM KCl, 1 mM MgCl2, 1 mM CaCl2 and 10 mM HEPES (pH=7.6). Electrode pipettes were fabricated from 1.2 mm outer diameter thin-walled borosilicate glass (TW120F-6, World Precision Instruments Inc., Sarasota, Fla.) pulled on a Sutter puller (model P-87). Pipette tips were broken to a diameter of approximately 0.1 mm and plugged with agar made with 3 M KCl for a final resistance of 1-4 MΩ. The circuitry of the amplifier compensated for electrode series resistance (Oocyte Clamp OC-725A, Warner Instruments Inc., Hampden, Conn., USA). Leak subtraction was accomplished using a P/8 protocol from a holding potential of −120 mV. Current was filtered at 2 kHz and digitized at 10 kHz using an IBM-compatible computer, a Warner analog-digital interface (model PP-50 Lab 1), and custom acquisition software. In order to minimize difficulties associated with voltage-clamping oocytes expressing large numbers of channel proteins, whole-cell recordings were limited to oocytes expressing less than 5 μAmps of peak current.
(§3) The desired concentrations of local channel protein anesthetic drugs in ND96 were introduced to the bath by perfusion with at least 30 mL (bath volume=0.6 mL). Total bath exchange took less than 3 minutes and the drugs were allowed to equilibrate with the oocytes for a minimum of 6 minutes prior to recording.
(§4) Current-voltage relationships were produced by stepping the membrane potential from −60 to +50 mV by increments of 5 mV from a holding potential of −80 mV. A repetition frequency of 0.2 Hz was used for such voltage families. Steady-state activation curves of whole-cell currents were calculated from the current-voltage relationships by scaling the peak currents by the net driving force (i.e., V−Erev) using the equation g=I/(V−Erev) where Erev=+45 to +60 mV. Steady-state fast-inactivation curves were constructed by normalizing the current recorded in test pulses to −10 mV following 50 msec prepulses to voltages ranging from −100 to −10 mV. A repetition frequency of 0.2 Hz was used for the steady-state inactivation protocol. Recovery from inactivation was assessed using a two-pulse protocol, in which identical depolarizing voltage pulses to −20 mV for 50 msec were applied to oocytes before (conditioning) and after (test) a variable duration repolarization to −80 mV (recovery potential). The peak current evoked by the second (test) depolarization was normalized to the amplitude of the first (conditioning) depolarization and represents the fraction of channel proteins that had recovered from inactivation during the interpulse recovery period.

[3] = test system: Na+ channel proteins; assay: Whole-cell Na+ current recordings with site-specific agents (channel type not stated); type: cell-based; conditions: for slow component of recovery from inactivation in modified channels: FIG. 8B
Experimental: as §2, §3, §4
(§5) Preliminary studies have been performed on four prototypes of the drug illustrated in FIG. 3. Studies using these drugs were performed on three distinct types of Na^+ channel proteins: skeletal muscle Na^+ channel proteins expressed in Xenopus sp. oocytes, native heart Na^+ channel proteins in isolated rat ventricular myocytes and mutated skeletal muscle Na^+ channel proteins (i.e., Y401C) in which the naturally occurring tyrosine at position 401 was replaced with cysteine, the residue naturally found in heart. Native heart Na^+ channel proteins and Y401C channel proteins are referred to as “heart-like” Na^+ channel proteins.

[4] = target: T3, skeletal muscle (rSkM1) Na+ channels (Rattus norvegicus, UniProt P15390); assay: Two-electrode voltage-clamp of skeletal muscle (rSkM1) Na+ channels recorded in oocytes; type: cell-based
T3 construct: expressed in transfected cells; host or cells: Xenopus oocytes (injected)
Experimental: as §1
For oocyte recordings, whole-cell currents were recorded at room temperature (approximately 23° C.) using a two-electrode voltage-clamp with 3 M KCl in the pipette and a bath solution containing: 96 mM NaCl, 4 mM KCl, 1 mM MgCl2, 1 mM CaCl2 and 10 mM HEPES (pH=7.6). Electrode pipettes were fabricated from 1.2 mm outer diameter thin-walled borosilicate glass (TW120F-6, World Precision Instruments Inc., Sarasota, Fla.) pulled on a Sutter puller (model P-87). Pipette tips were broken to a diameter of approximately 0.1 mm and plugged with agar made with 3 M KCl for a final resistance of 1-4 MΩ. The circuitry of the amplifier compensated for electrode series resistance (Oocyte Clamp OC-725A, Warner Instruments Inc., Hampden, Conn., USA). […]
as §4, with “A repetition frequency of 0.2 Hz was used for such voltage families.” left out, “A repetition frequency of 0.2 Hz was used for the steady-state inactivation protocol.” left out, “The peak current evoked by the second (test) depolarization was normalized to the amplitude of the first (conditioning) depolarization and represents the fraction of channel proteins that had recovered from inactivation during the interpulse recovery period.” left out

[5] = target: T4, native heart Na+ channel proteins (Rattus norvegicus, UniProt P15389); assay: Patch-clamp recording of native heart Na+ channels in isolated rat ventricular myocytes; type: cell-based
T4 construct: native heart Na^+ channel proteins in isolated rat ventricular myocytes; endogenous in cells; host or cells: isolated rat ventricular myocytes
Experimental: Similar recording methods were used with isolated rat ventricular myocytes using the patch-clamp recording technique.
as §5

[6] = test system: cardiac Na+ channels; assay: DTT and Cd2+ test of C2 anchoring to the pore cysteine; type: cell-based
Description: To determine the role of the cysteine in the pore of cardiac Na^+ channel proteins, effects of C2 on Na^+ channel proteins were examined in the presence of Cd^2+ and dithiothreitol (DTT). […] Thus, it appears that C2 is linked to the Na^+ channel protein via a disulfide bond.
Cd^2+ binds with very high affinity to free sulfhydryls but not disulfide linked sulfhydryls. To determine whether the cysteines are binding to the drug, after washout of the C2 from Na^+ channel proteins channel proteins, Cd^2+ was added. […] Following DTT application, C2 modified channel proteins restore their sensitivity to Cd^2+ and this restoration occurs simultaneous with the reversal of the local anesthetic effects.

[7] = repetitive depolarization to −10 mV at 10 Hz, 30 μM lidocaine
[8] = with 30 μM lidocaine, Y401C channels
[9] = with 30 μM lidocaine, HH1 channels
[10] = during application of 500 μM C2

T1 sequence (P15390 whole entry Y401C): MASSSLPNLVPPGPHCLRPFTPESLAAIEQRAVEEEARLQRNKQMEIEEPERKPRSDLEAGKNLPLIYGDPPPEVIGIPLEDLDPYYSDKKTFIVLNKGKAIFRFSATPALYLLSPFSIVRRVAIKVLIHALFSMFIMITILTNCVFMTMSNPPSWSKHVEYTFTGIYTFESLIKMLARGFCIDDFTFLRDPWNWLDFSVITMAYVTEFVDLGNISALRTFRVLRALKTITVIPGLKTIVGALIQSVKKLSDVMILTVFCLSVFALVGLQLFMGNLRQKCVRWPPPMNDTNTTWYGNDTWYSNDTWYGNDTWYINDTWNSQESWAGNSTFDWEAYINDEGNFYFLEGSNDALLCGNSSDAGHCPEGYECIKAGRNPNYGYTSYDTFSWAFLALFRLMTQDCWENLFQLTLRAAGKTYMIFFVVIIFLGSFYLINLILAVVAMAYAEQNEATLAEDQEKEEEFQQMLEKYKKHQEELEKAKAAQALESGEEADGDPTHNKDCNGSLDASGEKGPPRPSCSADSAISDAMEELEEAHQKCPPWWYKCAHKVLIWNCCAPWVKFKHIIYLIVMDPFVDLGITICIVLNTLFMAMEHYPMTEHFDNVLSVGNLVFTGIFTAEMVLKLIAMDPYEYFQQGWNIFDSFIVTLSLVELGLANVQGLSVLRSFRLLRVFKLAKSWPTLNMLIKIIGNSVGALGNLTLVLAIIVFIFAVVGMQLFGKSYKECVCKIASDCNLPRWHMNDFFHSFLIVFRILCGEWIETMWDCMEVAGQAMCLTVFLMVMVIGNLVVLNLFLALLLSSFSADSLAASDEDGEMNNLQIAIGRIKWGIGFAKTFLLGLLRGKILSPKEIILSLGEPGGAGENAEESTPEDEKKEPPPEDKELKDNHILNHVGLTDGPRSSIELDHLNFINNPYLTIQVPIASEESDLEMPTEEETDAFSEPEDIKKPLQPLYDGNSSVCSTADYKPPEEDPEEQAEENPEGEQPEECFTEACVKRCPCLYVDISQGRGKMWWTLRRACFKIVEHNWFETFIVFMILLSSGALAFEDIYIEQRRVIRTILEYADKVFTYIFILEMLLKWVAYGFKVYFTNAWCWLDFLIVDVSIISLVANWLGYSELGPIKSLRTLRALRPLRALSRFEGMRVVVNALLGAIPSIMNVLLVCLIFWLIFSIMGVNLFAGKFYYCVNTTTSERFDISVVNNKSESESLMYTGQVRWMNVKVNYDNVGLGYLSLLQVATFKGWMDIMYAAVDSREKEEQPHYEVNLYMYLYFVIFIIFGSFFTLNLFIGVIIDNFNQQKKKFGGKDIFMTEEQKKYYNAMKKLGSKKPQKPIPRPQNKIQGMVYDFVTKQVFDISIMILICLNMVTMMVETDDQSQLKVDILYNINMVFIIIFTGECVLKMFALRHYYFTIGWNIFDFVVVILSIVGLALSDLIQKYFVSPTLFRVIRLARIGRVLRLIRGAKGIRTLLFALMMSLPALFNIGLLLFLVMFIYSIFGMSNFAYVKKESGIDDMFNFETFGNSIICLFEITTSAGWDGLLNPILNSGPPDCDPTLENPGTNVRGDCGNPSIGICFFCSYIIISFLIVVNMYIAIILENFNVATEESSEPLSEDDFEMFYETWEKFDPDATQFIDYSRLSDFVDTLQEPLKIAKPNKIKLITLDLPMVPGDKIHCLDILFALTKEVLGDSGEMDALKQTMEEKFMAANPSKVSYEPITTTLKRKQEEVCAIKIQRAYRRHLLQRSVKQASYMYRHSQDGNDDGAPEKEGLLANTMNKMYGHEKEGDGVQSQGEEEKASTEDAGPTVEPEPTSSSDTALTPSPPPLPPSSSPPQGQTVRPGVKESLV
T1 sequence (Q00954 19-218 partner): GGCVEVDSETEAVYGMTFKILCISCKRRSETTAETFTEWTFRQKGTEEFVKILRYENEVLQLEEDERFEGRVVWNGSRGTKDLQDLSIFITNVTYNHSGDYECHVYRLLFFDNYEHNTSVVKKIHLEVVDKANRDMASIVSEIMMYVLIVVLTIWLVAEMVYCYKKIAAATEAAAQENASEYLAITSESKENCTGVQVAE
T3 sequence (P15390 whole entry): as the sequence (P15390 whole entry Y401C) above, with C401Y counted along it
T3 sequence (Q00954 19-218 partner): as the sequence (Q00954 19-218 partner) above
T2 sequence (Q14524 whole entry): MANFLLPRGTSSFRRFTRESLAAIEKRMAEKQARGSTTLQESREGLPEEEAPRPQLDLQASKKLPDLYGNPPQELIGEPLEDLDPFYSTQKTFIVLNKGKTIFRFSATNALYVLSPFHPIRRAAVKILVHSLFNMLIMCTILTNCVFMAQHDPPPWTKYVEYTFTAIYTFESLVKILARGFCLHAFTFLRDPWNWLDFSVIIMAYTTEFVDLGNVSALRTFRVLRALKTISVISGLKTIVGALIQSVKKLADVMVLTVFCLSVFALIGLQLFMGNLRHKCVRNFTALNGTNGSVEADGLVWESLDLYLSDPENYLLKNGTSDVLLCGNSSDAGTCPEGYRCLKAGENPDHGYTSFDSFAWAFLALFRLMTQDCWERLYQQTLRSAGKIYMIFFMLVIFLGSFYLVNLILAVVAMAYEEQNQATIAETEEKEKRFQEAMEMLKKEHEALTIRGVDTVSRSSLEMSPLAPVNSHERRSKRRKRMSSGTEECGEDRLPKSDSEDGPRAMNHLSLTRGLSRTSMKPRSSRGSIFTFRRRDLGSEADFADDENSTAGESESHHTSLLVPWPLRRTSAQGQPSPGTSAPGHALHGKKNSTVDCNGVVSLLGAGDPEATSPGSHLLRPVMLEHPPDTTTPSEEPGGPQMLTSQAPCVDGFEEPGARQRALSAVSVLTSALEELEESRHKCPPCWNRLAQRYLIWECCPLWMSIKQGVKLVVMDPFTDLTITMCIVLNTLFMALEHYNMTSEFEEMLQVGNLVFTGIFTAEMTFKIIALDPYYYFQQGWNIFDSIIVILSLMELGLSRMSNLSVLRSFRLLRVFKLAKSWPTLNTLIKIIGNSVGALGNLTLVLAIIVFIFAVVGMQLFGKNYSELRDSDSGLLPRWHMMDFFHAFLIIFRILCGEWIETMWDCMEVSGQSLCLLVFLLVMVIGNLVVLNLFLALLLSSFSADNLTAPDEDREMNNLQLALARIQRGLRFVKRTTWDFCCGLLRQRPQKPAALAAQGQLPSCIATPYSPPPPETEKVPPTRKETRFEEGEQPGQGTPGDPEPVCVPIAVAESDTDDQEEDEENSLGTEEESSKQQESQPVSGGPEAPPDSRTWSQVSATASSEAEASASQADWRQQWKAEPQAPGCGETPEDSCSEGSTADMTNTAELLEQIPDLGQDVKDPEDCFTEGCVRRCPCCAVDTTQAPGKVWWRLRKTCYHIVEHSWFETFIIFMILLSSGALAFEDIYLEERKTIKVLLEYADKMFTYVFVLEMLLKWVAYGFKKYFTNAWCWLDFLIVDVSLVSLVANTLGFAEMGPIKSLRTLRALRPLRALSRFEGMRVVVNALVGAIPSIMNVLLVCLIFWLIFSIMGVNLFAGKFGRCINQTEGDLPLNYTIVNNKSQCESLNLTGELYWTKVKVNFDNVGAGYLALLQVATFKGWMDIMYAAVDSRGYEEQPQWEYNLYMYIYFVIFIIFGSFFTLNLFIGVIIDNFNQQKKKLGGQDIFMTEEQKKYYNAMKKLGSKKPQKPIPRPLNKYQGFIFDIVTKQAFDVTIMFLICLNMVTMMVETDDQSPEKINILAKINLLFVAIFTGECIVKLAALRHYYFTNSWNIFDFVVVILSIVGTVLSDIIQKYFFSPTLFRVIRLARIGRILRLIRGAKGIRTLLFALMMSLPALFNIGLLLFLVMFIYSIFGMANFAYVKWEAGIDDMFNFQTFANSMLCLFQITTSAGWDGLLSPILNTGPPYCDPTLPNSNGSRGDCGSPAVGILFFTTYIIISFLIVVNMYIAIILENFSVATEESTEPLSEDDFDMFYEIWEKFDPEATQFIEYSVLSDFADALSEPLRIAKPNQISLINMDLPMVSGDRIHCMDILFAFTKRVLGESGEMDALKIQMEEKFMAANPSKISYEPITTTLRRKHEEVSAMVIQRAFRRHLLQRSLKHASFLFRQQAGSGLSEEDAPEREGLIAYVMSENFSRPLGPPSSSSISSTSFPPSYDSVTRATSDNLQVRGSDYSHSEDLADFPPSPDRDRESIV

Q: With `CCN(CC)CC(=O)Nc1c(C)cccc1C` [lidocaine, reference compound] as the compound, how does the use-dependent block [1, 7] read?
A: The use-dependent block was “use-dependent block”.

Q: What about the “tfast, first rapid phase of recovery from inactivation” value [1, 8] of the same compound?
A: The value was 5.0 ms.

Q: And the “tslow, second slow component of recovery from inactivation” value [1, 8]?
A: Its value is 365 ms.

Q: And the use-dependent block [2, 7]?
A: The use-dependent block was “use-dependent block”.

Q: And the “tfast, first rapid phase of recovery from inactivation” value [2, 9]?
A: The value was 16.11 ms.

Q: And the “tslow, second slow component of recovery from inactivation” value [2, 9]?
A: The value was 763 ms.

Q: What does the source list for `CS(=O)(=O)SCCCCCCOC(=O)c1ccc(N)cc1` [Formula C6, 8-(4-aminophenyl)-8-oxo-7-oxaoctyl methanethiosulfonate]?
A: potency relative to C2 [3]: far more potent than C2; melting point: 85 to 86 °C

Q: Which “slow component of recovery from inactivation in modified channels” value [3] does the source give for `CCOC(=O)c1ccc(N)cc1` [benzocaine, reference compound] here?
A: Its value is “not observed”.

Q: With `Cc1cccc(C)c1NC(=O)CNCCSS(C)(=O)=O` [Formula T2, 1-(2,6-dimethylphenyl)-2,8,8-trioxo-1,4-diaza-7,8-dithianonane] as the compound, how does the “use-dependence of Na+ channel current inhibition” value [3] read?
A: Its value is “use-dependent”.

Q: What does the source list for `CS(=O)(=O)SCCOC(=O)c1ccc(N)cc1` [Formula C2, 4-(4-aminophenyl)-4-oxo-3-oxabutyl methanethiosulfonate]?
A: reversibility of effects on washout ([1]; Y401C channels): inability to wash out; time constant for recovery from inactivation ([1]; after C2 application (washout)): 40.4 ms; time constant for recovery from inactivation [1, 10]: 39.0 ms; time constant for recovery from inactivation ([2]; after the application of C2 (washout)): 66 ms; time constant for recovery from inactivation [2, 10]: 45 ms; time constant for recovery from inactivation ([4]; after C2 washout): 13.7 ms; time constant for recovery from inactivation ([4]; in the presence of 500 μM C2): 56.7 ms; reversibility on washout ([4]; skeletal tissue): washed out; reversibility of binding on washout [5]: irreversible; use-dependence of Na+ channel current inhibition [3]: very little use-dependent block; recovery from inactivation ([3]; 100 μM to 1 mM): slowing; steady-state inactivation curve ([3]; 100 μM to 1 mM): leftward shifts; whole-cell Na+ current ([3]; 100 μM to 1 mM): decreases; whole-cell Na+ current decay following channel activation ([3]; 100 μM to 1 mM): enhanced rates; shift of the sensitivity of the channels to block by lidocaine ([3]; C2 anchoring, FIG. 9): nearly two orders of magnitude; slow component of recovery from inactivation in modified channels [3]: not observed; reversal of the current decrease by DTT ([6]; 10 mM DTT after C2 washout): completely reversed; block of Na+ current by μM Cd2+ after washout of the agent ([6]; Cd2+ added after C2 washout): no longer blocked; change of whole-cell currents ([6]; following C2 washout (FIG. 7A)): decreased; effect of DTT on the irreversible binding after washout ([6]; presence of DTT): totally inhibited; melting point: 112 to 113 °C

Q: Which melting point does the source give for `CS(=O)(=O)SCCCCCCCCCCOC(=O)c1ccc(N)cc1` [Formula C10, 12-(4-aminophenyl)-12-oxo-11-oxadodecyl methanethiosulfonate] here?
A: Its melting point is 73 to 74 °C.
